Data on 11 molecules can be found in ChEMBL document CHEMBL1201862, “PubChem BioAssay data set” (2004).

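A five-concentration, 48-hour dose response in 96-well plates underlies each endpoint, interpolated linearly between surrounding concentrations. GI50 is the concentration that inhibits growth by half.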 The source made the active and inactive calls. No stated cut-off is given here; in the data, active = GI50 up to about 1.1 µM and inactive = higher.

Test systems include MDA-MB-435; HL-60; HOP-92; IGROV-1; CCRF-CEM; SN12C; SK-MEL-5; A498; T47D; SNB-19; NCI-H226; EKVX; M14; NCI-H522; SK-MEL-28; MDA-N; HT-29; OVCAR-5; HCC 2998.
What all share (assay): growth of human tumour cells (NCI), 48 h

`O=C(O)C[S+]([O-])c1ccc2c3c(cccc13)C(=O)c1ccccc1-2` (stereo unspecified): the GI50 in the assay on MDA-MB-435, in the assay with HL-60, with HOP-92, in the assay with IGROV-1, in the assay with CCRF-CEM and in the assay with SN12C was > 100 µM (inactive) in each case. In addition, the GI50 in the assay on SK-MEL-5 was > 100 µM (inactive); in the assay with A498, > 100 µM (inactive); in the assay with T47D, > 100 µM (inactive); in the assay on SNB-19 it was > 100 µM (inactive); in the assay on NCI-H226 it was > 100 µM (inactive); with EKVX, 55.1 µM (inactive). Moreover, the GI50 in the assay with M14, in the assay with NCI-H522, with SK-MEL-28, with MDA-N, with HT-29 and with OVCAR-5 was > 100 µM (inactive) throughout. The GI50 with HCC 2998 is > 100 µM (inactive).
As for `CCCCCCCCCCCC1NC(N)=NC(CCCO)=C1C(=O)OC` (stereo unspecified), the GI50 in the assay on MDA-MB-435 was 1.88 µM (inactive); in the assay with HL-60, 1.42 µM (inactive); in the assay with HOP-92 it was 3.54 µM (inactive); with IGROV-1, 1.84 µM (inactive); with CCRF-CEM, 1.59 µM (inactive); with SN12C, 2.47 µM (inactive). The GI50 with SK-MEL-5 is 2.24 µM (inactive); in the assay with A498 it was 14.6 µM (inactive); in the assay with T47D, 5.09 µM (inactive); in the assay on SNB-19, 1.83 µM (inactive); with NCI-H226 it was 6.3 µM (inactive); in the assay with EKVX, 16.1 µM (inactive). Moreover, the GI50 was 1.93 µM (inactive) in the assay with M14; 1.77 µM (inactive) in the assay with NCI-H522; 2.44 µM (inactive) in the assay with MDA-N; 1.73 µM (inactive) in the assay on HT-29; 6.62 µM (inactive) in the assay with OVCAR-5; 2.35 µM (inactive) with HCC 2998.
With `[N-]=[N+]=Nc1c([N+](=O)[O-])c(=O)n(-c2ccccc2)c2ccccc12`, the GI50 is 21 µM (inactive) with MDA-MB-435; 26.4 µM (inactive) with HOP-92; 21.7 µM (inactive) with IGROV-1; 29.4 µM (inactive) in the assay on CCRF-CEM; 23.4 µM (inactive) in the assay with SN12C; 24.2 µM (inactive) with SK-MEL-5. Besides, the GI50 was 73.5 µM (inactive) in the assay on A498; 29.1 µM (inactive) with T47D; 32.3 µM (inactive) with SNB-19; 25.5 µM (inactive) in the assay with NCI-H226; 16.7 µM (inactive) with EKVX; 27.2 µM (inactive) with M14. The GI50 in the assay on NCI-H522 is 25.8 µM (inactive); with SK-MEL-28 it was 26.5 µM (inactive); with MDA-N, 27.2 µM (inactive); with HT-29, 28.2 µM (inactive); in the assay on OVCAR-5, > 100 µM (inactive); in the assay with HCC 2998, 61.5 µM (inactive).
`C=CCNC(=S)NC=C(C(N)=O)C(N)=O`: the GI50 with MDA-MB-435, in the assay with HL-60, with IGROV-1, in the assay with CCRF-CEM, in the assay with SN12C and in the assay on SK-MEL-5 was > 100 µM (inactive) each time. Moreover, the GI50 in the assay with A498 was < 0.01 µM (active); with T47D it was > 100 µM (inactive); in the assay with SNB-19, > 100 µM (inactive); in the assay on NCI-H226, > 100 µM (inactive); with EKVX, > 100 µM (inactive); in the assay on M14, > 100 µM (inactive). Besides, the GI50 with NCI-H522, in the assay with SK-MEL-28, in the assay with MDA-N, in the assay with HT-29, with OVCAR-5 and with HCC 2998 was > 100 µM (inactive) throughout.
Consider `C=CC(C)(C)N[C@@H](C(=O)N1CCC[C@H]1c1nc(-c2nc(C(=O)OCC=C(C)C)c(C)o2)c(C)o1)C(C)C`, for which the GI50 in the assay on MDA-MB-435 is 18.5 µM (inactive); with HL-60 it was 20.6 µM (inactive); with HOP-92 it was 17.5 µM (inactive); in the assay on IGROV-1, 28.8 µM (inactive); in the assay on CCRF-CEM, 11.7 µM (inactive); with SN12C, 18.5 µM (inactive). Also, the GI50 was 22.3 µM (inactive) in the assay on SK-MEL-5; 19.7 µM (inactive) in the assay with A498; 21.3 µM (inactive) with T47D; 19.7 µM (inactive) in the assay on SNB-19; 17 µM (inactive) in the assay on NCI-H226; 32.3 µM (inactive) in the assay on EKVX. In addition, the GI50 with M14 is 29 µM (inactive); in the assay on NCI-H522, 16.9 µM (inactive); in the assay with SK-MEL-28, 18.5 µM (inactive); in the assay on MDA-N it was 18 µM (inactive); in the assay on HT-29, 19.1 µM (inactive); in the assay on OVCAR-5 it was 35.9 µM (inactive). Also, in the assay on HCC 2998, the GI50 was 18.9 µM (inactive).
Regarding `COc1ccc(C2C(C(=O)c3ccccc3)=C(O)C(O)(CC(=O)c3ccccc3)N2c2ccc(OC)cc2)cc1` (stereo unspecified), the GI50 in the assay on MDA-MB-435 was 18.6 µM (inactive); with HL-60 it was 5.78 µM (inactive); in the assay with HOP-92, 4.2 µM (inactive); in the assay with IGROV-1, 21.9 µM (inactive); in the assay on CCRF-CEM, 3.52 µM (inactive); with SN12C it was 21.6 µM (inactive). In addition, the GI50 with SK-MEL-5 was 9.57 µM (inactive); in the assay on A498, 44.6 µM (inactive); with T47D it was 18.5 µM (inactive); in the assay with SNB-19, 12.2 µM (inactive); in the assay on NCI-H226 it was 16.1 µM (inactive); in the assay with EKVX, 24.6 µM (inactive). Further, the GI50 in the assay on M14 is 31.2 µM (inactive); in the assay on NCI-H522, 4.35 µM (inactive); with SK-MEL-28, 28.6 µM (inactive); in the assay on MDA-N it was 20.9 µM (inactive); with HT-29, 19.3 µM (inactive); in the assay on OVCAR-5 it was 23.6 µM (inactive). For the same molecule, the GI50 in the assay with HCC 2998 was 11.1 µM (inactive).
Take `O=c1/c(=C/c2ccc(-c3ccc(Cl)cc3Cl)o2)sc2n1[C@@H](c1ccc(Cl)cc1)C=C(c1cc(F)c(Cl)cc1Cl)N=2`: the GI50 is 54.3 µM (inactive) with MDA-MB-435; < 0.01 µM (active) in the assay with HL-60; 26.1 µM (inactive) in the assay with HOP-92; 33 µM (inactive) in the assay on IGROV-1; 76.4 µM (inactive) in the assay with SN12C; 46.5 µM (inactive) in the assay with SK-MEL-5. For the same molecule, the GI50 was 2.05 µM (inactive) in the assay on A498; 19.2 µM (inactive) in the assay on T47D; 35.6 µM (inactive) in the assay with SNB-19; 22 µM (inactive) in the assay with NCI-H226; > 100 µM (inactive) with M14; 84.3 µM (inactive) with NCI-H522. Besides, the GI50 with SK-MEL-28 was > 100 µM (inactive); in the assay on MDA-N it was 53.8 µM (inactive); in the assay on HT-29, 39.8 µM (inactive); in the assay on OVCAR-5 it was > 100 µM (inactive); in the assay with HCC 2998, 12.8 µM (inactive).
On to `CC[C@@]1(O)C(=O)OCc2c1cc1n(c2=O)Cc2c-1nc1ccccc1c2/C=N\NC(=O)C(N)Cc1ccc(O)cc1` (stereo partly specified), for which the GI50 in the assay on MDA-MB-435 is 1.61 µM (inactive); with HL-60, 0.146 µM (active); in the assay on HOP-92, 1.27 µM (inactive); in the assay on IGROV-1 it was 2.52 µM (inactive); in the assay on CCRF-CEM it was < 0.0236 µM (active); with SN12C, 0.228 µM (active). Moreover, the GI50 with SK-MEL-5 was 0.638 µM (active); in the assay on A498 it was 0.813 µM (active); in the assay with T47D it was 0.285 µM (active); with SNB-19 it was 0.267 µM (active); with NCI-H226, 0.15 µM (active); in the assay on EKVX, 2.57 µM (inactive). The GI50 in the assay with M14 was 0.587 µM (active); in the assay on NCI-H522, 0.998 µM (active); with SK-MEL-28, 6.24 µM (inactive); in the assay on MDA-N it was 3.35 µM (inactive); in the assay with HT-29, 1.36 µM (inactive); in the assay with HCC 2998 it was 4.03 µM (inactive).
Take `Cc1[nH]n(-c2nc3c(c(=O)[nH]2)CCCC3)c(=O)c1CCO`: the GI50 with MDA-MB-435, in the assay with HL-60, in the assay with IGROV-1, with CCRF-CEM, in the assay with SN12C and in the assay on SK-MEL-5 was > 100 µM (inactive) throughout. The GI50 in the assay on A498, with T47D, in the assay on SNB-19, with NCI-H226, in the assay with EKVX and in the assay on M14 was > 100 µM (inactive) throughout. Besides, the GI50 with NCI-H522, in the assay on SK-MEL-28, with MDA-N, with HT-29, in the assay on OVCAR-5 and in the assay on HCC 2998 was > 100 µM (inactive) in each case.
Regarding `CN(C)CCNc1ccc(CO)c2oc3ccc(O)cc3c(=O)c12`, the GI50 in the assay on MDA-MB-435 is 13.8 µM (inactive); with HL-60 it was 10.8 µM (inactive); in the assay on HOP-92 it was 15.7 µM (inactive); in the assay with IGROV-1, 19.1 µM (inactive); in the assay on CCRF-CEM, 4.56 µM (inactive); in the assay on SN12C, 12.9 µM (inactive). Further, the GI50 was 14.2 µM (inactive) with SK-MEL-5; 12.7 µM (inactive) with A498; 13.3 µM (inactive) in the assay with T47D; 17.1 µM (inactive) in the assay on SNB-19; 11.7 µM (inactive) with NCI-H226; 21.9 µM (inactive) in the assay on EKVX. Besides, the GI50 was 15.7 µM (inactive) with M14; 4.32 µM (inactive) with NCI-H522; 16.9 µM (inactive) with SK-MEL-28; 12.8 µM (inactive) with MDA-N; 11.3 µM (inactive) in the assay with HT-29; 16.8 µM (inactive) with OVCAR-5. Further, the GI50 in the assay with HCC 2998 was 14 µM (inactive).
Consider `CCCCCCC(O)C(O)CCC(O)C1CCC(CCCCC(O)CC2=CC(C)OC2=O)O1` (stereo unspecified) [ACETOGENINS], for which the GI50 is 17.4 µM (inactive) in the assay on MDA-MB-435; 4.88 µM (inactive) with HOP-92; 2.95 µM (inactive) in the assay on IGROV-1; 3.58 µM (inactive) with CCRF-CEM; 3.08 µM (inactive) in the assay on SN12C; 1.04 µM (active) in the assay on SK-MEL-5. Moreover, the GI50 was 17.5 µM (inactive) in the assay with A498; 3.13 µM (inactive) with T47D; 2.74 µM (inactive) in the assay on SNB-19; 1.74 µM (inactive) in the assay with NCI-H226; 1.92 µM (inactive) in the assay with EKVX; 3.15 µM (inactive) in the assay on M14. Also, the GI50 is 7.71 µM (inactive) with NCI-H522; 4.66 µM (inactive) with SK-MEL-28; 2.32 µM (inactive) in the assay on MDA-N; 2.33 µM (inactive) in the assay on HT-29; 8.3 µM (inactive) in the assay with OVCAR-5; 15.9 µM (inactive) in the assay with HCC 2998.
